Data reported in patent US20180250260A1, “METHODS FOR TREATING CANCER” (BOSTON BIOMEDICAL, INC., priority 2015, published 2018).
Values joined by “and” are separate entries in the source; they are usually repeats but may differ in a detail not shown here. Equal entries are not always repeated. “Also recorded” adds a separate entry of the source.

Experiments:
β-catenin = experiment: Cancer stemness biomarker immunofluorescence in cancer xenograft tumors: β-catenin; assay type: in vivo
Description: (§1) The effects of 2-acetylnaphtho[2,3-b]furan-4,9-dione, a compound of formula (I), on cancer stem cell markers was examined in cancer xenograft models with and without irinotecan. Human cancer cells were subcutaneously implanted into the right flank of 5-7 weeks old female athymic nude mice. When tumor size reached 200 mm^3, animals were treated with 2-acetylnaphtho[2,3-b]furan-4,9-dione, irinotecan, or a combination of 2-acetylnaphtho[2,3-b]furan-4,9-dione and irinotecan. Tumors were harvested after first dosing.
(§2) The harvested tissues were fixed in 3.7% neutral buffered formaldehyde at 4° C. for overnight. The paraffin was embedded, cut to about 5 microns, and affixed onto positively-charged slides. After being baked and de-paraffinized, the slides with tumor or control tissues were incubated in 10 mM Sodium Citrate (pH 6.0) for 10 minutes. After antigen retrieval, slides were probed with primary antibodies P-STAT3 (rabbit, Cell Signaling, 1:100), 13-Catenine (mouse, Santa Cruz, 1:400) at 4° C. overnight, and then Alexa Fluor fluorescent dyes-conjugated secondary antibodies (1:500, Invitrogen). After mounting, the slides with ProLong mounting medium with DAPI (Invitrogen) were examined under a Zeiss fluorescence microscope with 20× objective, and analyzed with Zen software.

p-Stat3 = experiment: Cancer stemness biomarker immunofluorescence in cancer xenograft tumors: p-Stat3; assay type: in vivo, mouse xenograft
Description: as §1, §2

[1] = test system: advanced gastrointestinal cancer, including CRC and gastric cancer; experiment: Phase Ib open-label multi-center study, anti-tumor activity (RECIST 1.1); assay type: in vivo, human; parameters: key to Best Response (RECIST 1.1): partial response (PR); stable disease (SD)
Description: (§3) The effects of 2-acetylnaphtho[2,3-b]furan-4,9-dione in combination with FOLFIRI in patients with advanced gastrointestinal cancer, including CRC and gastric cancer, were studied in phase lb open-label, multi-center studies. In one phase lb open label, multi-center clinical study, the safety, tolerability, and preliminary anti-tumor activity of 2-acetylnaphtho[2,3-b]furan-4,9-dione in combination with FOLFIRI, with and without bevacizumab, were assessed in adult patients with advanced gastrointestinal cancer, including CRC and gastric cancer. In addition, the pharmacokinetic profile and the pharmacodynamics (biomarkers) of 2-acetylnaphtho[2,3-b]furan-4,9-dione in combination with FOLFIRI, with and without bevacizumab, were studied, and the recommended phase II dose (RP2D) of 2-acetylnaphtho[2,3-b]furan-4,9-dione and FOLFIRI, with or without bevacizumab, were evaluated.
In total, as of April 2015, 18 patients aged 40-72 were enrolled in the open label, multi-center, phase lb study (see Table 2). These patients were pretreated with an average of >3 prior lines of therapy. Of this group, 10 patients (56%) previously progressed on FOLFIRI.
Of the 17 patients evaluable for response, 8 patients received 2-acetylnaphtho[2,3-b]furan-4,9-dione in combination with FOLFIRI and 9 patients received 2-acetylnaphtho[2,3-b]furan-4,9-dione in combination with FOLFIRI and bevacizumab (see FIG. 7).
(§4) Patients received continuous oral administration of 2-acetylnaphtho[2,3-b]furan-4,9-dione twice daily in 28 day cycles. A FOLFIRI regimen was administered (with or without bevacizumab depending on patient) every 14 days. Specifically, 2-acetylnaphtho[2,3-b]furan-4,9-dione was administered at a dose of 240 mg BID in combination with FOLFIRI (5-FU 400 mg/m^2 bolus with 2400 mg/m^2, irinotecan 180 mg/m^2, and leucovorin 400 mg/m^2 infusion) with or without bevacizumab 5 mg/kg, administered bi-weekly until progression of disease, unacceptable toxicity, or other discontinuation criterion was met.
(§5) Pharmacokinetics and pharmacodynamics were evaluated and objective tumor response was assessed every 8 weeks using Response Evaluation Criteria In Solid Tumors (RECIST 1.1).

[2] = Phase Ib open-label multi-center study, pharmacokinetics; assay type: in vivo, human; conditions: 240 mg BID with FOLFIRI, with and without bevacizumab
Description: as §3, §5

[3] = Phase Ib open-label multi-center study, safety and tolerability (adverse events); assay type: in vivo, human; conditions: 240 mg BID with FOLFIRI, with and without bevacizumab
Description: as §3, §4

cancer stem cells = experiment: Effect on cancer stem cells with and without 5-fluorouracil; assay type: cell-based; conditions: FIG. 5
From the text: The effects of 2-acetylnaphtho[2,3-b]furan-4,9-dione was examined in cancer stem cells with and without 5-fluorouracil by using methods similar to those disclosed in U.S. pre-grant Publication No. 2012/0252763, Example 3.

[4] = alone, cancer xenograft tumor model, FIG. 6
[5] = added to irinotecan, cancer xenograft tumor model, FIG. 6
[6] = alone, human colon cancer xenograft tumor (SW480) in nude mice, FIG. 4
[7] = 240 mg BID with FOLFIRI, with and without bevacizumab, 17 evaluable patients
[8] = individual patients, 240 mg BID with chemotherapy backbone FOLFIRI
[9] = individual patients, 240 mg BID with chemotherapy backbone FOLFIRI/Bev
[10] = N = 18, possibly/probably/definitely related

## CCc1c2c(nc3ccc(OC(=O)N4CCC(N5CCCCC5)CC4)cc13)-c1cc3c(c(=O)n1C2)COC(=O)[C@]3(O)CC [irinotecan, reference compound]
β-catenin; [4]
  staining for stem cell marker β-catenin: enhanced staining
p-Stat3; [4]
  staining for stem cell marker p-Stat3: enhanced staining

## CC(=O)c1cc2c(o1)C(=O)c1ccccc1C2=O [2-acetylnaphtho[2,3-b]furan-4,9-dione]
β-catenin; [5]
  irinotecan-enhanced staining for stem cell marker β-catenin: attenuated
β-catenin; [6]
  expression of β-catenin stem cell marker: dramatically reduced
[1]; 240 mg BID with FOLFIRI, with and without bevacizumab
  regression in the PR patients (RECIST 1.1): 44% and 33%
[1]; 240 mg BID with FOLFIRI, with and without bevacizumab, 7 of 17 patients
  patients with prolonged SD of ≥6 month: 41%
[1]; 240 mg BID with FOLFIRI, with and without bevacizumab, 10 of 17
  evaluable patients with prolonged SD (>6 months): 59%
[1]; 240 mg BID with FOLFIRI, with and without bevacizumab, 15 of 17, FIG. 7
  evaluable patients with reduced target lesions: 88%
[1]; [7]
  number of patients with PR (RECIST 1.1): 2
  number of patients with SD: 14
[1]; 240 mg BID with FOLFIRI, with and without bevacizumab, advanced CRC who had failed prior standard chemotherapy
  patients in whom anti-cancer activity was observed: 94%
[1]; 240 mg BID with FOLFIRI, with and without bevacizumab, evaluable patients
  median progression-free survival (PFS): 5.72 months
[1]; clinical trials, at least in CRC patients
  overall survival of patients with higher expression levels of Stat3 (pStat3) before treatment: prolonged overall survival
[1]; combination with FOLFIRI for 8 weeks, failed prior epirubicin, oxaliplatin and Xeloda, FIG. 8
  response of a patient with gastric adenocarcinoma with a metastatic lesion in the liver: complete response
[1]; in combination with FOLFIRI and bevacizumab
  median survival of pStat3-positive patients compared to pStat3-negative patients: longer median survival
[1]; [8]
  Best Response (RECIST 1.1): SD (4×) and PR (3×)
  Comment on course of disease: prolonged stable disease; also recorded: unequivocal progression; also recorded: prolonged stable disease,; also recorded: prolonged SD/PR,
  Weeks on Study: 25 weeks and 17 weeks (2×) and 16 weeks and 6 weeks and 3 weeks and 34+ weeks and 32+ weeks and 36 weeks
  tumor growth: 8% tumor growth, and 3% tumor growth
  tumor regression: 19% tumor regression, and 44% tumor regression and 23% tumor regression and 17 tumor regression, % and 40% tumor regression, and 83% tumor regression,
[1]; [9]
  Best Response (RECIST 1.1): SD
  Comment on course of disease: prolonged stable disease,; also recorded: prolonged stable disease
  Weeks on Study: 85+ weeks and 29 weeks and 24 weeks and 18 weeks and 15 weeks and 14 weeks and 25 weeks (2×) and 42 weeks
  tumor regression: 25% tumor regression, and 14% tumor regression, and 18% tumor regression, and 4% tumor regression and 10% tumor regression and 21% tumor regression and 1% tumor regression; and 4% tumor regression; and 18% tumor regression;
[1]; with bi-weekly FOLFIRI with or without bevacizumab
  lesion formations in patients previously exposed to FOLFIRI but experiencing progression: reduced lesion formations in almost all of the patients
[2]
  pharmacokinetic interactions: No significant pharmacokinetic interactions were observed
[3]
  Dehydration Grade 3 related to protocol therapy, number of patients: 1
  dose limiting toxicity or new adverse events: No dose limiting toxicity or new adverse events were seen
  safety of the combination: safely combined
[3]; [10]
  Abdominal Pain Grade 1, number of subjects: 7
  Abdominal Pain Grade 1, percent of total subjects: 38.9%
  Abdominal Pain Grade 2, number of subjects: 4
  Abdominal Pain Grade 2, percent of total subjects: 22.2%
  Abdominal Pain Grade 3, number of subjects: 0
  Abdominal Pain Grade 3, percent of total subjects: 0.0%
  Alopeda Grade 1, number of subjects: 4
  Alopeda Grade 1, percent of total subjects: 22.2%
  Alopeda Grade 2, number of subjects: 0
  Alopeda Grade 2, percent of total subjects: 0.0%
  Alopeda Grade 3, number of subjects: 0
  Alopeda Grade 3, percent of total subjects: 0.0%
  Anemia Grade 1, number of subjects: 2
  Anemia Grade 1, percent of total subjects: 11.1%
  Anemia Grade 2, number of subjects: 2
  Anemia Grade 2, percent of total subjects: 11.1%
  Anemia Grade 3, number of subjects: 0
  Anemia Grade 3, percent of total subjects: 0.0%
  Anorexia Grade 1, number of subjects: 12
  Anorexia Grade 1, percent of total subjects: 66.7%
  Anorexia Grade 2, number of subjects: 3
  Anorexia Grade 2, percent of total subjects: 16.7%
  Anorexia Grade 3, number of subjects: 0
  Anorexia Grade 3, percent of total subjects: 0.0%
  Diarrhea Grade 1, number of subjects: 18
  Diarrhea Grade 1, percent of total subjects: 100.0%
  Diarrhea Grade 2, number of subjects: 9
  Diarrhea Grade 2, percent of total subjects: 50.0%
  Diarrhea Grade 3, number of subjects: 3
  Diarrhea Grade 3, percent of total subjects: 16.7%
  Dry Mouth Grade 1, number of subjects: 2
  Dry Mouth Grade 1, percent of total subjects: 11.1%
  Dry Mouth Grade 2, number of subjects: 1
  Dry Mouth Grade 2, percent of total subjects: 5.6%
  Dry Mouth Grade 3, number of subjects: 0
  Dry Mouth Grade 3, percent of total subjects: 0.0%
  Dysgeusia Grade 1, number of subjects: 5
  Dysgeusia Grade 1, percent of total subjects: 27.8%
  Dysgeusia Grade 2, number of subjects: 0
  Dysgeusia Grade 2, percent of total subjects: 0.0%
  Dysgeusia Grade 3, number of subjects: 0
  Dysgeusia Grade 3, percent of total subjects: 0.0%
  Fatigue Grade 1, number of subjects: 12
  Fatigue Grade 1, percent of total subjects: 66.7%
  Fatigue Grade 2, number of subjects: 10
  Fatigue Grade 2, percent of total subjects: 55.6%
  Fatigue Grade 3, number of subjects: 3
  Fatigue Grade 3, percent of total subjects: 16.7%
  Flatulence Grade 1, number of subjects: 2
  Flatulence Grade 1, percent of total subjects: 11.1%
  Flatulence Grade 2, number of subjects: 1
  Flatulence Grade 2, percent of total subjects: 5.6%
  Flatulence Grade 3, number of subjects: 0
  Flatulence Grade 3, percent of total subjects: 0.0%
  Nausea Grade 1, number of subjects: 14
  Nausea Grade 1, percent of total subjects: 77.8%
  Nausea Grade 2, number of subjects: 6
  Nausea Grade 2, percent of total subjects: 33.3%
  Nausea Grade 3, number of subjects: 0
  Nausea Grade 3, percent of total subjects: 0.0%
  Neutropenia Grade 1, number of subjects: 3
  Neutropenia Grade 1, percent of total subjects: 16.7%
  Neutropenia Grade 2, number of subjects: 2
  Neutropenia Grade 2, percent of total subjects: 11.1%
  Neutropenia Grade 3, number of subjects: 0
  Neutropenia Grade 3, percent of total subjects: 0.0%
  Platelet Count Grade 1, number of subjects: 2
  Platelet Count Grade 1, percent of total subjects: 11.1%
  Platelet Count Grade 2, number of subjects: 0
  Platelet Count Grade 2, percent of total subjects: 0.0%
  Platelet Count Grade 3, number of subjects: 0
  Platelet Count Grade 3, percent of total subjects: 0.0%
  Urine Discolorization Grade 1, number of subjects: 4
  Urine Discolorization Grade 1, percent of total subjects: 22.2%
  Urine Discolorization Grade 2, number of subjects: 0
  Urine Discolorization Grade 2, percent of total subjects: 0.0%
  Urine Discolorization Grade 3, number of subjects: 0
  Urine Discolorization Grade 3, percent of total subjects: 0.0%
  Vomiting Grade 1, number of subjects: 11
  Vomiting Grade 1, percent of total subjects: 61.1%
  Vomiting Grade 2, number of subjects: 3
  Vomiting Grade 2, percent of total subjects: 16.7%
  Vomiting Grade 3, number of subjects: 0
  Vomiting Grade 3, percent of total subjects: 0.0%
  Weight Loss Grade 1, number of subjects: 2
  Weight Loss Grade 1, percent of total subjects: 11.1%
  Weight Loss Grade 2, number of subjects: 0
  Weight Loss Grade 2, percent of total subjects: 0.0%
  Weight Loss Grade 3, number of subjects: 0
  Weight Loss Grade 3, percent of total subjects: 0.0%
p-Stat3; [5]
  irinotecan-enhanced staining for stem cell marker p-Stat3: attenuated
p-Stat3; [6]
  expression of p-Stat3 stem cell marker: dramatically reduced
Cancer stem cells; added to 5-fluorouracil
  5-fluorouracil-induced increase in the number of cancer stem cells: attenuated
Cancer stem cells; combination with 5-fluorouracil
  effect of the combination on cancer stem cell growth: greater than additive effect
